Data from patent US11680939B2, “Systems and methods for detecting bioactive compounds using sensors with pre-stimulated cells” (priority 2019, dated 2023).

Tested on: sensor cells
Test: Impedance response of a sensor with photosensitive living cells to light pulses on exposure to a cytotoxin (FIG. 9)
Type: cell-based
Settings: toxin sample vs. clean sample, optically stimulated sensor cells
Source text: FIG. 2 illustrates an exemplary behavior of sensor cells when exposed to light according to some embodiments of the present invention. Some embodiments employ sensor cells which are genetically modified to express an opsin (e.g., channel rhodopsin, without loss of generality), and/or other channel proteins with a role in maintaining cellular homeostasis (e.g., potassium channel ROMK1, without loss of generality). In the illustrated example, exposure to light induces a sudden intake of sodium ions through the cell membrane, which may substantially change the membrane potential and therefore the measured impedance of the respective cell. […]
FIGS. 4-A-B show exemplary impedance responses of a sensor to a single light pulse and to a pulse train, respectively, according to some embodiments of the present invention wherein the sensor is prepared to contain cells having optically-sensitive ion channels. As the cellular membrane potential changes in response to the light pulse(s), the change is registered in the measured impedance of the sensor. […] This observation enables some embodiments of the present invention to detect and/or quantitate the target analyte from time series of impedance measurements. […]
A step 120 acquires a target impedance time series comprising a plurality of values, at least two of which are determined at distinct moments in time. […]

## C[C@@H]1O[C@@H](O[C@H]2C[C@@H](O)[C@]3(CO)[C@H]4[C@H](O)C[C@]5(C)[C@@H](C6=CC(=O)OC6)CC[C@]5(O)[C@@H]4CC[C@]3(O)C2)[C@H](O)[C@H](O)[C@H]1O [ouabain]
  response of the sensor to exposure to a cytotoxin (impedance response, membrane repolarization after light pulses): visible modifications of cell homeostasis
